Test results taken from patent publication US20060160841A1, “Crystallization via high-shear transformation” (priority 2005, published 2006).

Test: Particle size D[90] of crystals before and after polymorph transformation
Type: physicochemical

Row | SMILES | particle size D[90] (Example 1, needle-shaped crystals formed in vessel B on adding PG solution to water/PG anti-solvent at 10 to 20° C., before recirculation) | particle size D[90] (Example 1, small granular crystals after about 24 hours of recirculation through inline homogenization apparatus) | particle size D[90] (Example 2, small granular crystals after about 30 hours of recirculation by pump through outlet and inlet of vessel B) | particle size D[90] (Example 3, N-1 seeded, overhead homogenizer in transient vessel at 55-65° C., continuous transfer, filtered and dried)
1 | COc1ccc(-n2nc(C(N)=O)c3c2C(=O)N(c2ccc(N4CCCCC4=O)cc2)CC3)cc1 [H2-2, 1-(4-methoxyphenyl)-7-oxo-6-(4-(2-oxopiperidin-1-yl)phenyl)-4,5,6,7-tetrahydro-1H-pyrazolo[3,4-c]pyridine-3-carboxamide] | greater than 160 μm |  |  | 
2 | COc1ccc(-n2nc(C(N)=O)c3c2C(=O)N(c2ccc(N4CCCCC4=O)cc2)CC3)cc1 [N-1, 1-(4-methoxyphenyl)-7-oxo-6-(4-(2-oxopiperidin-1-yl)phenyl)-4,5,6,7-tetrahydro-1H-pyrazolo[3,4-c]pyridine-3-carboxamide] |  | less than 20 μm | less than 20 μm | less than 20 μm
